Where two headings read alike, the source gives them in different places.
Molecule `CCOc1cc2c3cc(c(OC)cc3n1)[C@H]1C[C@@H]1CC(C)(C)COC(=O)N[C@@H](C1CCCC1)C(=O)N1C[C@@H](C[C@H]1C(=O)OC)O2` has a ring closure, yield of all isomers (from CCOc1cc(O[C@H]2CN[C@H](C(=O)OC)C2)c2cc(C3CC3CC(C)(C)COC(=O)N[C@H](C(=O)O)C3CCCC3)c(OC)cc2n1, amide bond, HATU/DIEA, DCM, 7.1 mM, 18.0 h) of 65.5%.
With `CCOc1cc2c3cc(c(OC)cc3n1)/C=C/C[C@@H]1CCC[C@H]1OC(=O)N[C@@H](C1CCCC1)C(=O)N1C[C@@H](C[C@H]1C(=O)OC)O2` the ring closure, yield of all isomers (from C=CC[C@@H]1CCC[C@H]1OC(=O)N[C@H](C(=O)N1C[C@H](Oc2cc(OCC)nc3cc(OC)c(C=C)cc23)C[C@H]1C(=O)OC)C1CCCC1, rcm bond, Zhan 1b, DCE, 8.78 mM, 70.0 °C, 21.0 h) was 90.9%.
For `COC(=O)[C@@H]1C[C@@H]2CN1C(=O)[C@H](C1CCCCC1)NC(=O)OCC(C)(C)C/C=C/c1cc3c(cc(=O)[nH]c3cc1OC)O2`, the ring closure, yield of all isomers (from C=CCC(C)(C)COC(=O)N[C@H](C(=O)N1C[C@H](Oc2cc(=O)[nH]c3cc(OC)c(C=C)cc23)C[C@H]1C(=O)OC)C1CCCCC1, rcm bond, Zhan 1B, DCM, 4.96 mM, 40.0 °C, 32.0 h) was 99.5%.
